Data taken from ChEMBL document CHEMBL5036330, “Discovery of 8,9-seco-ent-Kaurane Diterpenoids as Potential Leads for the Treatment of Triple-Negative Breast Cancer” (J Med Chem, 2021).
Active and inactive are the calls of the source. The rule behind the calls is not given here.

What was measured:
MDA-MB-231 [1] = assay: Cytotoxicity against human MDA-MB-231 cells assessed as reduction in cell viability incubated for 96 hrs by MTT method; assay type: functional, cell-based; conditions: MDA-MB-231, 96 h
MDA-MB-231 [2] = assay: Induction of cell cycle arrest in human MDA-MB-231 cells assessed as accumulation of cells at S phase at 1 uM measured after 24 hrs by flow cytometry (reference value: 32.2%); assay type: functional
MDA-MB-231 [3] = assay: Induction of mitochondrial depolarization in human MDA-MB-231 cells assessed as aggregates at 1 uM in dark by JC10 staining based fluorescence microscopy (reference value: 94.4%); assay type: functional
MDA-MB-231 [4] = assay: Induction of autophagy in human MDA-MB-231 cells assessed as increase in LC3-II expression at 1 to 5 uM incubated for 24 hrs by Western blot analysis; assay type: functional, cell-based; conditions: dose 1-5 µM
MDA-MB-468 [5] = assay: Induction of apoptosis in human MDA-MB-468 cells assessed as late apoptotic cells at 5 uM measured after 24 hrs by Annexin V/Propidium iodide stain based Flow cytometry (reference value: 3.98%); assay type: functional
MDA-MB-468 [6] = assay: Induction of autophagy in human MDA-MB-468 cells assessed as elimination of p62 at 1 to 5 uM incubated for 24 hrs by Western blot analysis; assay type: functional, cell-based; conditions: dose 1-5 µM
MDA-MB-231 [7] = assay: Antiproliferative activity against human MDA-MB-231 cells assessed as supression of long term proliferative capacity measured after 2 weeks by Colony formation assay; assay type: functional, cell-based; conditions: dose 0.05-0.2 µM
MDA-MB-231 [8] = assay: Antitumor activity against human MDA-MB-231 cells xenografted in NOD/SCID mouse assessed as increase in LC3B expression in tumor tissue at 5 to 10 mg/kg, ip treated for 33 days by immunohistochemical analysis; assay type: functional, organism-based; conditions: dose 5-10 mg/kg, time 33.0 day
[9] = molecular target: Serine/threonine-protein kinase mTOR (Homo sapiens) (UniProt P42345); assay: Inhibition of mTOR phosphorylation in human MDA-MB-468 cells measured after 24 hrs by Western blot analysis; assay type: cell-based; conditions: dose 1-5 µM
MDA-MB-468 [10] = assay: Induction of apoptosis in human MDA-MB-468 cells assessed as early apoptotic cells at 1 uM measured after 24 hrs by Annexin V/Propidium iodide stain based Flow cytometry (reference value: 7.98%); assay type: functional
MDA-MB-231 [11] = assay: Induction of cell cycle arrest in human MDA-MB-231 cells assessed as accumulation of cells at S phase at 5 uM measured after 24 hrs by flow cytometry (reference value: 32.2%); assay type: functional
MDA-MB-468 [12] = assay: Induction of cell cycle arrest in human MDA-MB-468 cells assessed as accumulation of cells at S phase at 2 uM measured after 24 hrs by flow cytometry (reference value: 46.9%); assay type: functional
MDA-MB-468 [13] = assay: Induction of mitochondrial depolarization in human MDA-MB-468 cells assessed as aggregates at 5 uM in dark by JC10 staining based fluorescence microscopy (reference value: 91.6%); assay type: functional
MDA-MB-468 [14] = assay: Induction of apoptosis in human MDA-MB-468 cells assessed as early apoptotic cells at 5 uM measured after 24 hrs by Annexin V/Propidium iodide stain based Flow cytometry (reference value: 7.98%); assay type: functional
[15] = molecular target: RAC-alpha serine/threonine-protein kinase (Homo sapiens) (UniProt P31749); assay: Binding affinity to Akt1 in human MDA-MB-231 cells assessed as shifted melting curve at 2 uM by CETSA assay; assay type: cell-based
MDA-MB-468 [16] = assay: Antitumor activity against human MDA-MB-468 cells xenografted in NOD/SCID mouse assessed as increase in LC3B expression in tumor tissue at 5 to 10 mg/kg, ip treated for 33 days by immunohistochemical analysis; assay type: functional, organism-based; conditions: dose 5-10 mg/kg, time 33.0 day
MDA-MB-468 [17] = assay: Inhibition of PI3K phosphorylation in human MDA-MB-468 cells measured at 1 to 5 uM after 24 hrs by Western blot analysis; assay type: cell-based; conditions: dose 1-5 µM
MDA-MB-468 [18] = assay: Induction of autophagy in human MDA-MB-468 cells assessed as increase in LC3-II expression at 1 to 5 uM incubated for 24 hrs by Western blot analysis; assay type: functional, cell-based; conditions: dose 1-5 µM
MDA-MB-231 [19] = assay: Induction of mitochondrial depolarization in human MDA-MB-231 cells assessed as monomers at 1 uM in dark by JC10 staining based fluorescence microscopy (reference value: 5.6%); assay type: functional
MDA-MB-231 [20] = assay: Induction of apoptosis in human MDA-MB-231 cells assessed as early apoptotic cells at 1 uM measured after 24 hrs by Annexin V/Propidium iodide stain based Flow cytometry (reference value: 3.34%); assay type: functional
MDA-MB-468 [21] = assay: Effect on mTOR expression in human MDA-MB-468 cells measured at 1 to 5 uM after 24 hrs by Western blot analysis; assay type: functional, cell-based; conditions: dose 1-5 µM
MDA-MB-468 [22] = assay: Induction of cell cycle arrest in human MDA-MB-468 cells assessed as accumulation of cells at G1 phase at 1 uM measured after 24 hrs by flow cytometry (reference value: 26.6%); assay type: functional
MDA-MB-231 [23] = assay: Induction of apoptosis in human MDA-MB-231 cells assessed as late apoptotic cells at 5 uM measured after 24 hrs by Annexin V/Propidium iodide stain based Flow cytometry (reference value: 2.78%); assay type: functional
MDA-MB-231 [24] = assay: Induction of apoptosis in human MDA-MB-231 cells assessed as decrease in Bcl2/Bax ratio at 1 to 5 uM measured after 24 hrs by Western blot analysis; assay type: functional, cell-based; conditions: dose 1-5 µM
MDA-MB-231 [25] = assay: Induction of cell cycle arrest in human MDA-MB-231 cells assessed as accumulation of cells at S phase at 2 uM measured after 24 hrs by flow cytometry (reference value: 32.2%); assay type: functional
MDA-MB-231 [26] = assay: Induction of apoptosis in human MDA-MB-231 cells assessed as increase in cleaved PARP at 1 to 5 uM measured after 24 hrs by Western blot analysis; assay type: functional, cell-based; conditions: dose 1-5 µM
MDA-MB-468 [27] = assay: Antitumor activity against human MDA-MB-468 cells xenografted in NOD/SCID mouse assessed as decrease in Ki67 expression in tumor tissue at 5 to 10 mg/kg, ip treated for 33 days by immunohistochemical analysis; assay type: functional, organism-based; conditions: dose 5-10 mg/kg, time 33.0 day
MDA-MB-231 [28] = assay: Induction of apoptosis in human MDA-MB-231 cells assessed as early apoptotic cells at 5 uM measured after 24 hrs by Annexin V/Propidium iodide stain based Flow cytometry (reference value: 3.34%); assay type: functional
MDA-MB-468 [29] = assay: Induction of apoptosis in human MDA-MB-468 cells assessed as late apoptotic cells at 1 uM measured after 24 hrs by Annexin V/Propidium iodide stain based Flow cytometry (reference value: 3.98%); assay type: functional
MDA-MB-231 [30] = assay: Antiinvasive activity against in human MDA-MB-231 cells assessed as reduction in beta-catenin expression measured upto 72 hrs by Western blot analysis; assay type: functional, cell-based; conditions: dose 0.1-0.2 µM, time hrs <=72
HEK293 = assay: Cytotoxicity against HEK-293 cells assessed as reduction in cell viability incubated for 96 hrs by MTT method; assay type: cell-based; conditions: Homo sapiens, HEK293, 96 h
[31] = Toxicity in NOD/SCID mouse assessed as cytotoxicity in liver at 10 mg/kg, ip treated for 33 days by H&E staining analysis; assay type: organism-based; conditions: in vivo, 792 h, time 33 day
MDA-MB-231 [32] = assay: Induction of cell cycle arrest in human MDA-MB-231 cells assessed as accumulation of cells at G2 phase at 2 uM measured after 24 hrs by flow cytometry (reference value: 20.2%); assay type: functional
MDA-MB-231 [33] = assay: Induction of mitochondrial depolarization in human MDA-MB-231 cells assessed as aggregates at 2 uM in dark by JC10 staining based fluorescence microscopy (reference value: 94.4%); assay type: functional

RAC-alpha serine/threonine-protein kinase (Homo sapiens), sequence (P31749 whole entry): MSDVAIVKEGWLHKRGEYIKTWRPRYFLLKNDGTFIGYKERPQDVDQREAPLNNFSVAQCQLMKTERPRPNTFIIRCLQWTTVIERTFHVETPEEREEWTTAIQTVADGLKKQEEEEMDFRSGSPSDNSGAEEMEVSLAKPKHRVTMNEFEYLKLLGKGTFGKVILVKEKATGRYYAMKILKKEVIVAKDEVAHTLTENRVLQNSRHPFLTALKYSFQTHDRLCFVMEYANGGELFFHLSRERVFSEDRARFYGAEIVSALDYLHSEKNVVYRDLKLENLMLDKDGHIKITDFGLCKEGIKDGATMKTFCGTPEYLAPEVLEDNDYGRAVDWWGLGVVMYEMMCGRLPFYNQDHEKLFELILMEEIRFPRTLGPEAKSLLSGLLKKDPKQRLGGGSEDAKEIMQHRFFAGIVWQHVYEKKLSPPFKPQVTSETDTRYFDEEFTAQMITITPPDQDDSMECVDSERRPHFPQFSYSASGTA

inhibition [9]: Active
Activity [15]: Active
Compound: C=C1C(=O)C2=C[C@H]1CCC(=O)[C@]1(C)[C@H](O)CCC(C)(C)[C@H]1C[C@H]2O
IC50 (MDA-MB-231 [1]): 0.0783 µM
Activity (MDA-MB-231 [2]): 37%
Activity (MDA-MB-231 [3]): 81.1%
Activity (MDA-MB-231 [4]): Active
Activity (MDA-MB-468 [5]): 25.9%
Activity (MDA-MB-468 [6]): Active
Activity (MDA-MB-231 [7]): Active
Activity (MDA-MB-231 [8]): Active
Activity (MDA-MB-468 [10]): 29.7%
Activity (MDA-MB-231 [11]): 35.1%
Activity (MDA-MB-468 [12]): 27.6%
Activity (MDA-MB-468 [13]): 13.3%
Activity (MDA-MB-468 [14]): 21%
Activity (MDA-MB-468 [16]): Active
inhibition (MDA-MB-468 [17]): inactive
Activity (MDA-MB-468 [18]): Active
Activity (MDA-MB-231 [19]): 18.9%
Activity (MDA-MB-231 [20]): 6.59%
Activity (MDA-MB-468 [21]): inactive
Activity (MDA-MB-468 [22]): 14.3%
Activity (MDA-MB-231 [23]): 28%
Activity (MDA-MB-231 [24]): Active
Activity (MDA-MB-231 [25]): 34.5%
Activity (MDA-MB-231 [26]): Active
Activity (MDA-MB-468 [27]): Active
Activity (MDA-MB-231 [28]): 18%
Activity (MDA-MB-468 [29]): 10.1%
Activity (MDA-MB-231 [30]): Active
IC50 (HEK293): 1.96 µM
Activity [31]: Non-Toxic
Activity (MDA-MB-231 [32]): 31.7%
Activity (MDA-MB-231 [33]): 56.9%
